From publication PMC8175350, “Drug repurposing screens identify chemical entities for the development of COVID-19 interventions” (Nature Communications, 2021)
Read-outs that look alike come from different tables or passages of the source.

Experiments:
SARS-CoV-2 [1] = test: microbe, parasite or virus in culture; format: cell-based; conditions: for HeLa-ACE2 CoV-2 Sinf Average: curve-fit effect at infinite concentration
HeLa-ACE2 cells [2] = test: Uninfected HeLa-ACE2 24 h live/dead cytotoxicity counter screen; format: cell-based, human; conditions: for HeLa-ACE2 uninfected cytotoxicity Sinf Average: curve-fit effect at infinite concentration
SARS-CoV-2 [3] = test: microbe, parasite or virus in culture; format: cell-based
HeLa-ACE2 cells [4] = conditions: for EC50: read-out: HeLa-ACE2 cell count EC50 GeoMean, unrounded geometric mean
Calu-3 cells [5] = conditions: for EC50: read-out: Calu-3 cell count EC50 GeoMean, unrounded geometric mean; for Calu-3 cell count Sinf Average: curve-fit effect at infinite concentration
Calu-3 cells [6] = test: Uninfected Calu-3 48 h Cell-Titer Glo cytotoxicity counter screen; conditions: for Calu-3 uninfected cytotoxicity Sinf Average: curve-fit effect at infinite concentration
[7] = Uninfected HeLa-ACE2 24 h live/dead cytotoxicity counter screen; format: cell-based, human; conditions: human, uninfected HeLa-ACE2 cells, geometric mean of replicates; read-out: HeLa-ACE2 uninfected cytotoxicity CC50 GeoMean
Calu-3 cells [8] = tested on: Calu-3 cells
HeLa-ACE2 cells [9] = test: cells; conditions: Homo sapiens, HeLa-ACE2, read-out: HeLa-ACE2 cell count EC50 GeoMean (µM), geometric mean of replicates
Calu-3 cells [10] = test: cells; conditions: Homo sapiens
in vitro = conditions: human, Calu-3 uninfected cytotoxicity CC50 GeoMean (µM)
[11] = human, cited from earlier work
[12] = unrounded geometric mean, read-out: HeLa-ACE2 CoV-2 EC50 GeoMean
[13] = unrounded geometric mean, read-out: HeLa-ACE2 uninfected cytotoxicity CC50 GeoMean
[14] = unrounded geometric mean, read-out: Calu-3 CoV-2 EC50 GeoMean
[15] = curve-fit effect at infinite concentration, average
[16] = read-out: Calu-3 uninfected cytotoxicity CC50 GeoMean, unrounded geometric mean

## CCN(CC)CCCNc1nccc2c(C)c3[nH]c4ccc(O)cc4c3c(C)c12 [SR-26050]
SARS-CoV-2 [1]
  HeLa-ACE2 CoV-2 Sinf Average: -101%
SARS-CoV-2 [1]; [12]
  EC50: 0.359 µM
HeLa-ACE2 cells [2]
  HeLa-ACE2 uninfected cytotoxicity Sinf Average: -98%
HeLa-ACE2 cells [2]; [13]
  CC50: 0.602 µM
SARS-CoV-2 [3]
  Calu-3 CoV-2 Sinf Average: -103%
SARS-CoV-2 [3]; [14]
  EC50: 503 nM
HeLa-ACE2 cells [4]; [15]
  HeLa-ACE2 cell count Sinf Average: -103%
HeLa-ACE2 cells [4]
  EC50: 0.48 µM
Calu-3 cells [5]
  EC50: > 9980 nM
Calu-3 cells [6]
  Calu-3 uninfected cytotoxicity Sinf Average: -100%
Calu-3 cells [6]; [16]
  CC50: 5.84 µM

## CN(C)C(C(=O)Nc1ccc2c(=O)[nH]ccc2c1)c1ccsc1 (stereo not drawn) [Verosudil]
SARS-CoV-2 [1]; Severe acute respiratory syndrome coronavirus 2, HeLa-ACE2, geometric mean of replicates, read-out: HeLa-ACE2 CoV-2 EC50 GeoMean
  EC50: > 9.59 µM
[7]
  CC50 at 24 h: > 39.8 µM
HeLa-ACE2 cells [2]; Sinf average of the curves
  HeLa-ACE2 uninfected cytotoxicity Sinf Average (%): -100%
SARS-CoV-2 [3]; Severe acute respiratory syndrome coronavirus 2, Calu-3, 48 h, Sinf average of the curves, read-out: Calu-3 CoV-2 Sinf Average (%)
  Emax: 93%
SARS-CoV-2 [3]; Severe acute respiratory syndrome coronavirus 2, Calu-3, geometric mean of replicates, read-out: Calu-3 CoV-2 EC50 GeoMean
  EC50: > 3510 nM
HeLa-ACE2 cells [4]; Sinf average of the curves
  HeLa-ACE2 cell count Sinf Average (%): -100%
Calu-3 cells [8]
  uninfected Calu-3 CC50 [μM]: > 18.887 ×÷ 2.21 (n=3) μM
Calu-3 cells [8]; human, 48 h
  Calu-3 uninfected cytotoxicity Sinf Average (%): 80%
HeLa-ACE2 cells [9]
  EC50: > 9.59 µM
Calu-3 cells [10]; Calu-3, 48 h, read-out: Calu-3 cell count Sinf Average (%)
  Emax: 79%
Calu-3 cells [10]; Calu-3, read-out: Calu-3 cell count EC50 GeoMean (µM), geometric mean of replicates
  EC50: 0.561 µM
In vitro
  CC50 at 48 h: > 18.9 µM

## Antimycin A3
SARS-CoV-2 [1]; [12]
  EC50: > 9.59 µM
HeLa-ACE2 cells [2]
  HeLa-ACE2 uninfected cytotoxicity Sinf Average: -100%
HeLa-ACE2 cells [2]; [13]
  CC50: > 39.8 µM
SARS-CoV-2 [3]; [15]
  Calu-3 CoV-2 Sinf Average: -92%
SARS-CoV-2 [3]; [14]
  EC50: 35.5 nM
HeLa-ACE2 cells [4]
  EC50: > 9.59 µM
Calu-3 cells [5]
  Calu-3 cell count Sinf Average: 47%
  EC50: 62.6 nM
Calu-3 cells [6]
  Calu-3 uninfected cytotoxicity Sinf Average: -79%
Calu-3 cells [6]; [16]
  CC50: > 3.9 µM

## Deazaneplanocin A
SARS-CoV-2 [1]
  HeLa-ACE2 CoV-2 Sinf Average: -100%
SARS-CoV-2 [1]; [12]
  EC50: > 9.59 µM
HeLa-ACE2 cells [2]
  HeLa-ACE2 uninfected cytotoxicity Sinf Average: -79%
HeLa-ACE2 cells [2]; [13]
  CC50: > 7.95 µM
SARS-CoV-2 [3]; [15]
  Calu-3 CoV-2 Sinf Average: -85%
SARS-CoV-2 [3]; [14]
  EC50: 56.8 nM
Calu-3 cells [5]
  Calu-3 cell count Sinf Average: 62%
  EC50: 108 nM
Calu-3 cells [6]
  Calu-3 uninfected cytotoxicity Sinf Average: -70%
Calu-3 cells [6]; [16]
  CC50: > 10.3 µM

## Mitoguazone
SARS-CoV-2 [1]
  HeLa-ACE2 CoV-2 Sinf Average: -100%
SARS-CoV-2 [1]; reconfirmed hits, read-out: HeLa-ACE2 SARS-CoV-2 EC50
  EC50: > 9.6 µM
SARS-CoV-2 [1]; [12]
  EC50: > 9.59 µM
HeLa-ACE2 cells [2]
  HeLa-ACE2 uninfected cytotoxicity Sinf Average: -99%
HeLa-ACE2 cells [2]; reconfirmed hits, read-out: HeLa-ACE2 Uninf. cells CC50
  CC50: > 40 µM
HeLa-ACE2 cells [2]; [13]
  CC50: > 39.8 µM
SARS-CoV-2 [3]; [15]
  Calu-3 CoV-2 Sinf Average: -94%
SARS-CoV-2 [3]; reconfirmed hits, read-out: Calu-3 SARS-CoV-2 EC50
  EC50: 446 nM
SARS-CoV-2 [3]; [14]
  EC50: 446 nM
Calu-3 cells [5]
  Calu-3 cell count Sinf Average: 71%
  EC50: > 4070 nM
[11]; ref [33]-[49]
  Approx. t1/2: 175 h
[11]; read-out: Approx. Cmax, IV, ref [44]
  Cmax: 120 µM
Calu-3 cells [6]; read-out: Calu-3 Uninf. cells CC50, reconfirmed hits
  CC50: > 30 µM
Calu-3 cells [6]; [16]
  CC50: > 29.9 µM

## Oligomycin A
SARS-CoV-2 [1]; [12]
  EC50: > 9.59 µM
SARS-CoV-2 [3]; [14]
  EC50: < 7.35 nM
HeLa-ACE2 cells [4]
  EC50: > 9.59 µM
Calu-3 cells [5]
  Calu-3 cell count Sinf Average: 50%
  EC50: > 220 nM
